Reference: patent US20250332173A1, “COMPOUNDS AND METHODS FOR MODULATING NUCLEIC ACID SPLICING” (REMIX THERAPEUTICS INC., priority 2021, published 2025)
Where two headings read alike, the source gives them in different places.

How the values were obtained:
Format in all cases: cell-based, human
HTT mRNA = assay: RT-qPCR splicing assay, HTT canonical junction (CJ) and alternative junction (AJ) mRNA; settings: Homo sapiens; for AC50: increase in HTT alternative junction (AJ) mRNA, read-out: HTT AJ AC50
Outline: (§1)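 Following a 24-hour incubation of A673 or K562 cells with serially diluted compound (3-fold steps, highest final 10 uM), the lysates undergo cDNA synthesis plus qPCR. Canonical and alternative junctions are each quantified against PPIA, GAPDH or GUSB.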

MYB mRNA = assay: RT-qPCR splicing assay, MYB canonical junction (CJ) and alternative junction (AJ) mRNA; settings: Homo sapiens; for AC50: increase in MYB alternative junction (AJ) mRNA, read-out: MYB AJ AC50
Outline: as §1

SMN2 mRNA = assay: RT-qPCR splicing assay, SMN2 canonical junction (CJ) mRNA; settings: Homo sapiens; Table 5 panel; canonical junction qPCR; compound concentration having 50% response in CJ decrease; read-out: SMN2 IC50 (decrease in CJ mRNA levels)
Outline: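 Canonical exon-exon junction transcript levels measured by one-step RT-qPCR of cell lysates, normalized to a housekeeping gene (GAPDH, GUSB or PPIA). Cells used were A673 or K562, exposed for 24 h to compound in 11-point, 3-fold series from 10 uM, with final DMSO at or below 0.25%.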

[1] = decrease in HTT canonical junction (CJ) mRNA, RT-qPCR, read-out: HTT CJ IC50
[2] = Table 5 panel, canonical junction qPCR, compound concentration having 50% response in CJ decrease, read-out: HTT IC50 (decrease in CJ mRNA levels)
[3] = Table 5 panel, canonical junction qPCR, compound concentration having 50% response in CJ decrease, read-out: MYB IC50 (decrease in CJ mRNA levels)
[4] = decrease in MYB canonical junction (CJ) mRNA, RT-qPCR, read-out: MYB CJ IC50

| IC50 (HTT mRNA; [1]) [nM] | IC50 (HTT mRNA; [2]) [nM] | IC50 (MYB mRNA; [3]) [nM] | IC50 (MYB mRNA; [4]) [nM] | IC50 (SMN2 mRNA) [nM] | Compound | AC50 (HTT mRNA; RT-qPCR) [nM] | AC50 (MYB mRNA; RT-qPCR) [nM] |
| --- | --- | --- | --- | --- | --- | --- | --- |
| < 100 | < 100 | < 100 | < 100 | < 100 | Cn1cc2cc(-c3cc(F)c4c(=O)n(C5CCNC6(CC6)C5)ccc4c3)cc(F)c2n1 (stereo not drawn) [Compound 412] | < 100 | < 100 |
| < 100 | < 100 | < 100 | < 100 | < 100 | Cc1cn2cc(-c3cc(F)c4c(=O)n(C5CCNC6(CC6)C5)ccc4c3)cc(Cl)c2n1 (stereo not drawn) [Compound 413, 2-{4-azaspiro[2.5]octan-7-yl}-6-{8-chloro-2-methylimidazo[1,2-a]pyridin-6-yl}-8-fluoroisoquinolin-1-one] | < 100 | < 100 |
| 1000 to 10000 | 1000 to 10000 | 1000 to 10000 | 1000 to 10000 | 100 to 1000 | Cn1cc2cc(-c3cc(F)c4c(=O)n(C5CCNC6(CC6)C5)ccc4c3)c(O)cc2n1 (stereo not drawn) [Compound 414, 2-{4-azaspiro[2.5]octan-7-yl}-8-fluoro-6-(6-hydroxy-2-methylindazol-5-yl)isoquinolin-1-one] | 1000 to 10000 | 1000 to 10000 |
| < 100 | < 100 | < 100 | < 100 | < 100 | Cc1cc(-c2cc(F)c3c(=O)n(C4CCNC5(CC5)C4)ccc3c2)cc2cn(C)nc12 (stereo not drawn) [Compound 415, 2-{4-azaspiro[2.5]octan-7-yl}-6-(2,7-dimethylindazol-5-yl)-8-fluoroisoquinolin-1-one] | < 100 | < 100 |
| 100 to 1000 | 100 to 1000 | < 100 | < 100 | < 100 | Cc1cn2cc(-c3cc(F)c4c(=O)n(C5CCNC6(CC6)C5)ccc4c3)cc(C)c2n1 (stereo not drawn) [Compound 416, 2-{4-azaspiro[2.5]octan-7-yl}-6-{2,8-dimethylimidazo[1,2-a]pyridin-6-yl}-8-fluoroisoquinolin-1-one] | 100 to 1000 | < 100 |
| > 10000 | > 10000 | 1000 to 10000 | 1000 to 10000 | 100 to 1000 | Cc1c(O)c(-c2cc(F)c3c(=O)n(C4CCNC5(CC5)C4)ccc3c2)cc2cn(C)nc12 (stereo not drawn) [Compound 419, 2-{4-azaspiro[2.5]octan-7-yl}-8-fluoro-6-(6-hydroxy-2,7-dimethylindazol-5-yl)isoquinolin-1-one] | > 10000 | 1000 to 10000 |
| 1000 to 10000 | 1000 to 10000 | 100 to 1000 | 100 to 1000 | < 100 | Cn1cc2cc(-c3cc(F)c4c(=O)n(C5CCNC6(CC6)C5)ccc4c3)c(O)c(F)c2n1 (stereo not drawn) [Compound 420, 2-{4-azaspiro[2.5]octan-7-yl}-8-fluoro-6-(7-fluoro-6-hydroxy-2-methylindazol-5-yl)isoquinolin-1-one] | 1000 to 10000 | 100 to 1000 |
| > 10000 | > 10000 | > 10000 | > 10000 | > 10000 | Cc1cn2cc(-c3cc(F)c4c(=O)n(C5CCNC6(CC6)C5)ccc4c3)c(O)c(C)c2n1 (stereo not drawn) [Compound 421, 2-{4-azaspiro[2.5]octan-7-yl}-8-fluoro-6-{7-hydroxy-2,8-dimethylimidazo[1,2-a]pyridin-6-yl}isoquinolin-1-one] | > 10000 | > 10000 |
| < 100 | < 100 | < 100 | < 100 | < 100 | Cc1cc(-c2cc(F)c3c(=O)n(C4CCNC5(CC5)C4)ccc3c2)nc2cn(C)nc12 (stereo not drawn) [Compound 431] | < 100 | < 100 |

Continued, compound first:

| Compound | IC50 (HTT mRNA; [1]) [nM] | IC50 (HTT mRNA; [2]) [nM] | IC50 (MYB mRNA; [3]) [nM] | IC50 (MYB mRNA; [4]) [nM] | IC50 (SMN2 mRNA) [nM] | AC50 (HTT mRNA; RT-qPCR) [nM] | AC50 (MYB mRNA; RT-qPCR) [nM] |
| --- | --- | --- | --- | --- | --- | --- | --- |
| Cc1cn2cc(-c3cc(S(C)(=O)=O)c4c(=O)n(C5CCNCC5)ccc4c3)cc(F)c2n1 [Compound 409, 6-(8-fluoro-2-methylimidazo[1,2-a]pyridin-6-yl)-8-(methylsulfonyl)-2-(piperidin-4-yl)isoquinolin-1(2H)-one] | > 10000 | > 10000 | > 10000 | > 10000 | > 10000 | > 10000 | > 10000 |
| Cc1nc2c(F)cc(-c3cc(F)c4c(=O)n(C5CCNC6(CC6)C5)ccc4c3)cc2o1 (stereo not drawn) [Compound 417, 2-{4-azaspiro[2.5]octan-7-yl}-8-fluoro-6-(4-fluoro-2-methyl-1,3-benzoxazol-6-yl)isoquinolin-1-one] | < 100 | < 100 | < 100 | < 100 | < 100 | < 100 | < 100 |
| Cc1nc2c(C)cc(-c3cc(F)c4c(=O)n(C5CCNC6(CC6)C5)ccc4c3)cc2o1 (stereo not drawn) [Compound 418, 2-{4-azaspiro[2.5]octan-7-yl}-6-(2,4-dimethyl-1,3-benzoxazol-6-yl)-8-fluoroisoquinolin-1-one] | < 100 | < 100 | < 100 | < 100 | < 100 | < 100 | < 100 |
| Cc1cn2nc(-c3cc(C)c4c(=O)n(C5CCNC6(CC6)C5)ncc4c3)cc(C)c2n1 (stereo not drawn) [Compound 423, 6-(2,8-dimethylimidazo[1,2-b]pyridazin-6-yl)-8-methyl-2-(4-azaspiro[2.5]octan-7-yl)phthalazin-1(2H)-one] | < 100 | < 100 | < 100 | < 100 | < 100 | < 100 | < 100 |
| Cc1cn2cc(-c3cc(F)c4c(=O)n(C5CCNC6(CC6)C5)ccc4c3)ncc2n1 (stereo not drawn) [Compound 428, 8-fluoro-6-(2-methylimidazo[1,2-a]pyrazin-6-yl)-2-(4-azaspiro[2.5]octan-7-yl)isoquinolin-1(2H)-one] | 1000 to 10000 | 1000 to 10000 | 100 to 1000 | 100 to 1000 | < 100 | 1000 to 10000 | 100 to 1000 |
| Cc1cc(-c2cc(F)c3c(=O)n(C4CCNC5(CC5)C4)ccc3c2)cc2c1nc(C)n2C (stereo not drawn) [Compound 429] | > 10000 | > 10000 | > 10000 | > 10000 | > 10000 | > 10000 | > 10000 |
| Cc1nc2c(F)cc(-c3cc(F)c4c(=O)n(C5CCNC6(CC6)C5)ccc4c3)cc2n1C (stereo not drawn) [Compound 430, 8-fluoro-6-(4-fluoro-1,2-dimethyl-1H-benzo[d]imidazol-6-yl)-2-(4-azaspiro[2.5]octan-7-yl)isoquinolin-1(2H)-one] | > 10000 | > 10000 | > 10000 | > 10000 | 100 to 1000 | > 10000 | > 10000 |
| Cc1cn2nc(-c3cc(O)c4c(=O)n(C5CCNC5)ccc4c3)cc(C)c2n1 (stereo not drawn) [Compound 432, 6-{2,8-dimethylimidazo[1,2-b]pyridazin-6-yl}-8-hydroxy-2-(pyrrolidin-3-yl)isoquinolin-1-one] | 1000 to 10000 | 1000 to 10000 | < 100 | 100 to 1000 | < 100 | 1000 to 10000 | < 100 |
| Cc1cn2cc(-c3cc(O)c4c(=O)n(C5CCNC5)ccc4c3)cc(C#N)c2n1 (stereo not drawn) [Compound 433, 6-(8-hydroxy-1-oxo-2-(pyrrolidin-3-yl)-1,2-dihydroisoquinolin-6-yl)-2-methylimidazo[1,2-a]pyridine-8-carbonitrile] | > 10000 | > 10000 | < 100 | 1000 to 10000 | < 100 | > 10000 | 100 to 1000 |
